Some test systems named below: 786-0 renal; A498 renal; A549 NSCLC; BT-549 breast; CAKI-1 renal; HCT-15 colon; HOP-62 NSCLC; HOP-92 NSCLC; HS 578T breast; LOX IMVI melanoma; M14 melanoma; MDA-MB-435; OVCAR-4 ovarian; SF-268 CNS; SK-MEL-5 melanoma; SR leukemia; U251 CNS; UACC-257 melanoma; SNB-75 CNS.
What all share (assay): growth of human tumour cells (NCI), 48 h

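Exposure lasted 48 hours, with cells grown in 96-well plates and compounds tested at five concentrations. At the TGI there is no net growth.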

Consider `COC(=O)[C@@]1(Cc2ccc(O)cc2)C[C@@H]2Cc3ccccc3N2N1`, for which the TGI was above 100 µM in the assay with 786-0 renal; 97.3 µM in the assay with A498 renal; above 100 µM in the assay with A549 NSCLC; above 100 µM in the assay on BT-549 breast; above 100 µM in the assay on CAKI-1 renal; above 100 µM in the assay with HCT-15 colon. Also, the TGI in the assay on HOP-62 NSCLC, with HOP-92 NSCLC, with HS 578T breast, with LOX IMVI melanoma, with M14 melanoma and in the assay with MDA-MB-435 was above 100 µM throughout. Also, the TGI with OVCAR-4 ovarian is above 100 µM; in the assay on SF-268 CNS it was above 100 µM; in the assay with SK-MEL-5 melanoma, above 100 µM; with SR leukemia it was above 100 µM; with U251 CNS it was above 100 µM; in the assay on UACC-257 melanoma, 71.7 µM.

As for `COC(=O)c1c2c(cc3c1CC1(C3)Cc3cc4c(c(C(C)=O)c3C1)CCC4)C=CC2` (stereo unspecified), the TGI in the assay with 786-0 renal is above 31.6 µM; with A498 renal it was above 31.6 µM; in the assay on A549 NSCLC it was above 31.6 µM; in the assay on BT-549 breast, above 31.6 µM; in the assay on CAKI-1 renal it was above 100 µM; in the assay on HCT-15 colon, above 31.6 µM. Further, the TGI in the assay on HOP-62 NSCLC, with HOP-92 NSCLC, in the assay on HS 578T breast, with M14 melanoma, in the assay on MDA-MB-435 and in the assay on OVCAR-4 ovarian was above 31.6 µM throughout. Also, the TGI was above 31.6 µM in the assay on SF-268 CNS; above 31.6 µM with SK-MEL-5 melanoma; 31.2 µM in the assay with SNB-75 CNS; above 31.6 µM in the assay with SR leukemia; above 31.6 µM with U251 CNS; above 31.6 µM in the assay on UACC-257 melanoma.

With `O=C(NNC(=S)Nc1ccc(Br)cc1)c1cc(-c2ccccc2)nc2ccccc12`, the TGI with 786-0 renal was 33.2 µM; in the assay with A498 renal, 28.6 µM; in the assay with A549 NSCLC, 58 µM; with BT-549 breast it was 60.9 µM; in the assay on CAKI-1 renal it was 72.6 µM; with HCT-15 colon, 66.9 µM. For the same compound, the TGI worked out at 42 µM in the assay on HOP-62 NSCLC; 43.4 µM in the assay with HOP-92 NSCLC; 94.2 µM with HS 578T breast; 34.8 µM in the assay on M14 melanoma; 43.2 µM with MDA-MB-435; 46.5 µM in the assay with OVCAR-4 ovarian. Also, the TGI in the assay on SF-268 CNS was above 100 µM; in the assay with SK-MEL-5 melanoma it was 30.5 µM; in the assay with SNB-75 CNS, above 100 µM; with SR leukemia, 40.6 µM; in the assay on U251 CNS, 32.5 µM; in the assay on UACC-257 melanoma, 61.4 µM.

With `CC(C)OP(=O)(OC(C)C)c1ccc2c(c1)OCCOCCOCCOCCO2`, the TGI in the assay on 786-0 renal, with A498 renal, with A549 NSCLC, in the assay on BT-549 breast, with CAKI-1 renal and in the assay with HCT-15 colon was above 100 µM each time. Also, the TGI in the assay with HOP-62 NSCLC, with HS 578T breast, with LOX IMVI melanoma, with M14 melanoma, in the assay on MDA-MB-435 and in the assay on SF-268 CNS was above 100 µM in each case. In addition, the TGI with SK-MEL-5 melanoma, with SNB-75 CNS, in the assay with SR leukemia and in the assay with UACC-257 melanoma was above 100 µM in each case.

As to `Cc1ccc(C2SCC(=O)N2c2ccc(-c3ccc(-n4c(-c5ccccc5)nc5ccccc5c4=O)cc3)cc2)cc1` (stereo unspecified), the TGI in the assay on 786-0 renal, in the assay with A498 renal, with A549 NSCLC, in the assay with BT-549 breast, with CAKI-1 renal and in the assay with HCT-15 colon was above 100 µM throughout. The TGI with HOP-62 NSCLC, in the assay with HOP-92 NSCLC, with HS 578T breast, with LOX IMVI melanoma, in the assay on M14 melanoma and in the assay on MDA-MB-435 was above 100 µM in each case. For the same compound, the TGI in the assay with OVCAR-4 ovarian, in the assay with SF-268 CNS, with SK-MEL-5 melanoma, in the assay with SR leukemia, with U251 CNS and in the assay on UACC-257 melanoma was above 100 µM in each case.

For `CCN1C(=O)/C(=C2\SC(c3ccccc3)(c3ccccc3)c3ccccc32)SC1=S`, the TGI in the assay with 786-0 renal was above 100 µM; in the assay with A498 renal, above 100 µM; in the assay with A549 NSCLC it was above 100 µM; with BT-549 breast, above 100 µM; in the assay with HCT-15 colon, above 100 µM; with HOP-62 NSCLC, 68.1 µM. For the same compound, the TGI in the assay on HOP-92 NSCLC is 82.4 µM; in the assay on HS 578T breast, above 100 µM; with LOX IMVI melanoma it was above 100 µM; with M14 melanoma, above 100 µM; with MDA-MB-435, above 100 µM; with OVCAR-4 ovarian, above 100 µM. Besides, the TGI is above 100 µM in the assay on SF-268 CNS; above 100 µM in the assay on SK-MEL-5 melanoma; above 100 µM in the assay with SNB-75 CNS; 42.9 µM with SR leukemia; above 100 µM in the assay on U251 CNS; above 100 µM in the assay with UACC-257 melanoma.

Values taken from PubChem BioAssay (NCI).
